# Results taken from patent EP1674467A1, “2,5- and 2,6-disubstituted benzazole derivatives useful as protein kinase inhibitors” (4SC AG, priority 2004, dated 2006).
# Molecular target: at least one kinase selected from Aurora-A, Aurora-B, EGF-R, ERBB2, PDGFR, IGF1-R, VEGF-R2, VEGF-R3, EPHB4, Tie2, and SRC
# Assay: 33PanQinase Activity Assay (protein kinase assay)
# Assay type: biochemical, human
# Details: on at least one kinase of the listed panel, or on at least two kinases from at least two different molecular mechanisms of tumor progression; 1 µM [γ-33P]-ATP, 30°C, 80 minutes
# Experimental: The effect of the benzazole derivatives was tested on recombinant, human protein kinases. All protein kinases were expressed in Sf9 insect cells as human recombinant GST-fusion proteins or as His-tagged proteins by means of the baculovirus expression system. Protein kinases were purified by affinity chromatography using either GSH-agarose or Ni-NTH-agarose. The purity and identity of each was checked by SDS-PAGE/silver staining and by western blot analysis with specific antibodies.
# A proprietary protein kinase assay (^33PanQinase® Activity Assay) was used for measuring the kinase activity. All kinase assays were performed in 96-well FlashPlates™ in a 50 µl reaction volume. The assay for all enzymes contained 60 mM HEPES-NaOH, pH 7.5, 3 mM MgCl2, 3 mM MnCl2, 3 µM Na-orthovanadate, 1.2 mM DTT, 50 µg/ml PEG20000 and 1 µM [γ-^33P]-ATP (approx. 5x10^5 cpm per well). The reaction cocktails were incubated at 30°C for 80 minutes. The reaction was stopped with 50 µl of 2% (v/v) H3PO4, plates were aspirated and washed two times with 200 µl of 0.9% (w/v) NaCl. Incorporation of ^33Pi was determined with a microplate scintillation counter. All assays were performed with a BeckmanCoulter/ Sagian robotic system.
row,Structure (SMILES),IC50
1,"COc1cc2ncnc(Nc3nc4ccc(NC(=O)Nc5ccc(Cl)c(C(F)(F)F)c5)cc4s3)c2cc1OC [Example 18, 1-(4-Chloro-3-trifluoromethylphenyl)-3-[2-(6,7-dimethoxyquinazolin-4-yl-amino)benzothiazol-6-yl]urea]",< 500 nM
2,"COc1cc2c(Nc3nc4ccc(NC(=O)Nc5ccc(Cl)c(C(F)(F)F)c5)cc4s3)ncnc2cc1OCCCN1CCN(C)CC1 [Example 19, 1-(4-Chloro-3-trifluoromethylphenyl)-3-(2-{6-methoxy-7-[3-(4-methylpiperazin-1-yl)-propoxy]quinazolin-4-ylamino}benzothiazol-6-yl)urea]",< 500 nM
3,"COc1cc2ncnc(Nc3nc4cc(NC(=O)Nc5ccc(Cl)c(C(F)(F)F)c5)ccc4s3)c2cc1OC [Example 20, 1-(4-Chloro-3-trifluoromethylphenyl)-3-[2-(6,7-dimethoxyquinazolin-4-yl-amino)benzothiazol-5-yl]urea]",< 500 nM

# The next lines start with the values.
row,IC50,Structure (SMILES)
1,< 500 nM,"COc1cc2ncnc(Nc3nc4ccc(NC(=O)c5cccc(OC(F)(F)F)c5)cc4s3)c2cc1OC [Example 11, N-[2-(6,7-Dimethoxyquinazolin-4-ylamino)-benzothiazol-6-yl]-3-trifluoromethoxybenzamide]"
2,< 500 nM,"COc1cc2ncnc(Nc3nc4ccc(NC(=O)Nc5ccccc5)cc4s3)c2cc1OC [Example 12, 1-[2-(6,7-Dimethoxyquinazolin-4-ylamino)benzothiazol-6-yl]-3-phenylurea]"
3,< 500 nM,"COc1cc2ncnc(Nc3nc4ccc(NC(=O)Nc5cccc(F)c5)cc4s3)c2cc1OC [Example 14, 1-[2-(6,7-Dimethoxyquinazolin-4-ylamino)benzothiazol-6-yl]-3-(3-fluorophenyl)urea]"
4,< 500 nM,"COc1cc2ncnc(Nc3nc4ccc(NC(=O)Nc5cccc(C(F)(F)F)c5)cc4s3)c2cc1OC [Example 15, 1-[2-(6,7-Dimethoxyquinazolin-4-ylamino)benzothiazol-6-yl]-3-(3-trifluoromethylphenyl)urea]"
